As a reminder, the IC50 is the concentration at which inhibition is half-maximal.

≈ marks a conversion by molar mass, not a printed value.

This experiment has as its target T1, rat intestinal α-glucosidase.
T1 construct: gene Si; crude buffer extract of rat intestinal acetone powder; mixture of brush-border alpha-glucosidases
Nature of the experiment: p-nitrophenyl glucopyranoside hydrolysis, absorbance at […] nm. Particulars: 5 mM p-NPG stock (printed as beta anomer; 50 µL in 200 µL assay), 0.1 M sodium phosphate pH 6.9, 0.9% NaCl, 37 °C, 10 min preincubation; positive control; crude extract. The class given is biochemical.

Turning to `C[C@H]1O[C@H](O[C@H]2[C@H](O)[C@@H](O)[C@@H](O[C@H]3[C@H](O)[C@@H](O)C(O)O[C@@H]3CO)O[C@@H]2CO)[C@H](O)[C@@H](O)[C@@H]1N[C@H]1C=C(CO)[C@@H](O)[C@H](O)[C@H]1O` (stereo partly shown) [acarbose], the IC50 was 27 µg/mL (≈ 41.8 µM).

These data come from paper PMC7143835, “Anti-Hyperglycemic Effects of Green Crab Hydrolysates Derived by Commercially Available Enzymes” (Foods, 2020).
